This assay has as its target HEK293 cells with stable expression of the GRIN1 gene and tetracycline-inducible expression of the GRIN2B gene (NMDA receptor, NR2B) (Homo sapiens, UniProt Q13224). Description: Fluo-8 Ca2+ flux assay: reversal of Ro 25-6981-mediated suppression of the Ca2+ response to co-agonist (glutamate/glycine). Also: test concentration or dose not given here. Type of assay: cell-based. The conditions noted are these: reversal of the Ro 25-6981 suppression of the Ca2+ response to co-agonist (glutamate/glycine). In general terms: Calcium flux is commonly read through the fluorescence of an indicator in the cells.
Chain of HEK293 cells with stable expression of the GRIN1 gene and tetracycline-inducible expression of the GRIN2B gene (NMDA receptor, NR2B) (Q13224 27-1484, other chains not shown): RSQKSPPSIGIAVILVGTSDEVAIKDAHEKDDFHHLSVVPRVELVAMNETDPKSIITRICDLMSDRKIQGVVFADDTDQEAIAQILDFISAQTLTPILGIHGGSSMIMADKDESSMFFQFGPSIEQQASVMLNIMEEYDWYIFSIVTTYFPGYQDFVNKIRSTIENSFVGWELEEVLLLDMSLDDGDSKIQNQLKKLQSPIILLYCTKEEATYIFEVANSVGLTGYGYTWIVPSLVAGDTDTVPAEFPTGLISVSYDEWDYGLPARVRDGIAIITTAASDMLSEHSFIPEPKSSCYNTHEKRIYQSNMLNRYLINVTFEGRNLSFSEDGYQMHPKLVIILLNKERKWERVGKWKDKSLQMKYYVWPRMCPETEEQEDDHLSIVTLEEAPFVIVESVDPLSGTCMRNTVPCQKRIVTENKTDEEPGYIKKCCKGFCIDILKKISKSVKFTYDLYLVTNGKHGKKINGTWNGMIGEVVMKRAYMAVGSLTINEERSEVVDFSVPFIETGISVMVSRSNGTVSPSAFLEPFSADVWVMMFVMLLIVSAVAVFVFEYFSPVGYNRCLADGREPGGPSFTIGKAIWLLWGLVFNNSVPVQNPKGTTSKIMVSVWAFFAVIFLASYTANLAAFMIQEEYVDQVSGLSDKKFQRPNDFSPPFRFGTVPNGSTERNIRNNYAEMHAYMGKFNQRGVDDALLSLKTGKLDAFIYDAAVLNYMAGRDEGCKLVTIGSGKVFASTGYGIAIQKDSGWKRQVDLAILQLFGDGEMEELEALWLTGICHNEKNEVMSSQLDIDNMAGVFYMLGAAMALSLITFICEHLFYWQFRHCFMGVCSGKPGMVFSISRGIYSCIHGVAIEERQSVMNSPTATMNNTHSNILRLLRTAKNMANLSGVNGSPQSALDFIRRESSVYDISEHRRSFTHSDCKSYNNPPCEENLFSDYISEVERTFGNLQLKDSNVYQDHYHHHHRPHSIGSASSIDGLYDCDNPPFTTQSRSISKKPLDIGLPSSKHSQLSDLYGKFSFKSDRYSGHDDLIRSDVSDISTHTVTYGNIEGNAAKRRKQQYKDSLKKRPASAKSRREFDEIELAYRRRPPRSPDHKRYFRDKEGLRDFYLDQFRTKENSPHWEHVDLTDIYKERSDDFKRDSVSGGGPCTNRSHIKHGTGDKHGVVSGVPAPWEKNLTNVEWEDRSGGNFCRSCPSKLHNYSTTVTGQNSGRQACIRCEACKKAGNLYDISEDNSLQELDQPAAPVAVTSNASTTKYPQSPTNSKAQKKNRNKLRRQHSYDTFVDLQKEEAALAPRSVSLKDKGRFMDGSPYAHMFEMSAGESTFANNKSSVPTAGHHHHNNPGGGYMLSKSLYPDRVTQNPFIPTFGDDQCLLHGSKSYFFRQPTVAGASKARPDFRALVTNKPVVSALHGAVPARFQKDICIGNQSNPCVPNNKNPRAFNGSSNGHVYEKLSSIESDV
Turning to `O=C(Cn1cc(CN2CCC2)c2scc(-c3ccc(F)c(Cl)c3)c2c1=O)N1CCC(F)C1` (stereo not drawn) [Example 124, 7-(azetidin-1-ylmethyl)-3-(3-chloro-4-fluorophenyl)-5-(2-(3-fluoropyrrolidin-1-yl)-2-oxoethyl)thieno[3,2-c]pyridin-4(5H)-one], the “Response Recovered (%)” value came to 76%. With `O=C(Cn1cc(CN2CC(F)C2)c2scc(-c3ccc(F)c(Cl)c3)c2c1=O)N1CCC(F)C1` (stereo not drawn) [Example 125, 3-(3-chloro-4-fluorophenyl)-7-((3-fluoroazetidin-1-yl)methyl)-5-(2-(3-fluoropyrrolidin-1-yl)-2-oxoethyl)thieno[3,2-c]pyridin-4(5H)-one], the “Response Recovered (%)” value amounted to 53%. In the case of `COCc1cn(CC(=O)N2CCC(F)C2)c(=O)c2c(-c3ccc(F)c(C(F)(F)F)c3)csc12` (stereo not drawn) [Example 126, 3-(4-fluoro-3-(trifluoromethyl)phenyl)-5-(2-(3-fluoropyrrolidin-1-yl)-2-oxoethyl)-7-(methoxymethyl)thieno[3,2-c]pyridin-4(5H)-one] it was 46%.

In the case of `CCOCc1cn(CC(=O)N2CCC(F)C2)c(=O)c2c(-c3ccc(F)c(C(F)(F)F)c3)csc12` (stereo not drawn) [Example 127, 7-(ethoxymethyl)-3-(4-fluoro-3-(trifluoromethyl)phenyl)-5-(2-(3-fluoropyrrolidin-1-yl)-2-oxoethyl)thieno[3,2-c]pyridin-4(5H)-one], the “Response Recovered (%)” value is 48%. In the case of `COCc1cn(CC(=O)N2CCC(F)C2)c(=O)c2c(-c3ccc(F)c(Cl)c3)csc12` (stereo not drawn) [Example 128, 3-(3-chloro-4-fluorophenyl)-5-(2-(3-fluoropyrrolidin-1-yl)-2-oxoethyl)-7-(methoxymethyl) thieno[3,2-c]pyridin-4(5H)-one] it was 23%. The result for `O=C(Cn1cc(CO)c2scc(-c3ccc(F)c(Cl)c3)c2c1=O)N1CCC(F)C1` (stereo not drawn) [Example 129, 3-(3-chloro-4-fluorophenyl)-5-(2-(3-fluoropyrrolidin-1-yl)-2-oxoethyl)-7-(hydroxymethyl) thieno[3,2-c]pyridin-4(5H)-one] reads 39%; that for `CCOCc1cn(CC(=O)N2CCC(F)C2)c(=O)c2c(-c3ccc(F)c(Cl)c3)csc12` (stereo not drawn) [Example 130, 3-(3-chloro-4-fluorophenyl)-7-(ethoxymethyl)-5-(2-(3-fluoropyrrolidin-1-yl)-2-oxoethyl)thieno[3,2-c]pyridin-4(5H)-one], 42%; that for `O=C(Cn1cc(CO)c2scc(-c3ccc(Cl)c(Cl)c3)c2c1=O)N1CCC(F)C1` (stereo not drawn) [Example 131, 3-(3,4-dichlorophenyl)-5-(2-(3-fluoropyrrolidin-1-yl)-2-oxoethyl)-7-(hydroxymethyl) thieno[3,2-c]pyridin-4(5H)-one], 72%. The result for `COCc1cn(CC(=O)N2CCC(F)C2)c(=O)c2c(-c3ccc(Cl)c(Cl)c3)csc12` (stereo not drawn) [Example 132, 3-(3,4-dichlorophenyl)-5-(2-(3-fluoropyrrolidin-1-yl)-2-oxoethyl)-7-(methoxymethyl) thieno[3,2-c]pyridin-4(5H)-one] reads 20%; that for `CC(C)(O)c1cn(CC(=O)N2CCC(F)C2)c(=O)c2c(-c3ccc(F)c(C(F)(F)F)c3)csc12` (stereo not drawn) [Example 133, 3-(4-fluoro-3-(trifluoromethyl)phenyl)-5-(2-(3-fluoropyrrolidin-1-yl)-2-oxoethyl)-7-(2-hydroxypropan-2-yl)thieno[3,2-c]pyridin-4(5H)-one], 9.9%.

On to `O=C(Cn1cc(/C=N/O)c2scc(-c3ccc(F)c(C(F)(F)F)c3)c2c1=O)N1CCC(F)C1` (stereo not drawn) [Example 134, (E)-3-(4-fluoro-3-(trifluoromethyl)phenyl)-5-(2-(3-fluoropyrrolidin-1-yl)-2-oxoethyl)-4-oxo-4,5-dihydrothieno[3,2-c]pyridine-7-carbaldehyde oxime], for which the “Response Recovered (%)” value is recorded as 130%.

Consider `C/C(=N/O)c1cn(CC(=O)N2CCC(F)C2)c(=O)c2c(-c3ccc(F)c(C(F)(F)F)c3)csc12` (stereo not drawn) [Example 135, (Z)-3-(4-fluoro-3-(trifluoromethyl)phenyl)-5-(2-(3-fluoropyrrolidin-1-yl)-2-oxoethyl)-7-(1-(hydroxyimino)ethyl)thieno[3,2-c]pyridin-4(5H)-one], for which the “Response Recovered (%)” value was 11%. For the molecule `CC1(F)CN(C(=O)Cn2ccc3scc(-c4cnc(C#N)c(Cl)c4)c3c2=O)C1` [Example 136, 3-chloro-5-(5-(2-(3-fluoro-3-methylazetidin-1-yl)-2-oxoethyl)-4-oxo-4,5-dihydrothieno[3,2-c]pyridin-3-yl)picolinonitrile], the “Response Recovered (%)” value worked out at 17%.

As to `CCC1(F)CN(C(=O)Cn2ccc3scc(-c4cnc(C#N)c(Cl)c4)c3c2=O)C1` [Example 137, 3-chloro-5-(5-(2-(3-ethyl-3-fluoroazetidin-1-yl)-2-oxoethyl)-4-oxo-4,5-dihydrothieno[3,2-c]pyridin-3-yl)picolinonitrile], the “Response Recovered (%)” value was 22%. In the case of `N#Cc1ncc(-c2csc3ccn(CC(=O)N4CC(F)(CF)C4)c(=O)c23)cc1Cl` [Example 138, 3-chloro-5-(5-(2-(3-fluoro-3-(fluoromethyl)azetidin-1-yl)-2-oxoethyl)-4-oxo-4,5-dihydrothieno[3,2-c]pyridin-3-yl)picolinonitrile] it was 10%. In the case of `CC1(F)CN(C(=O)Cn2ccc3scc(-c4cnc(F)c(F)c4)c3c2=O)C1` [Example 139, 3-(5,6-difluoropyridin-3-yl)-5-(2-(3-fluoro-3-methylazetidin-1-yl)-2-oxoethyl)thieno[3,2-c]pyridin-4(5H)-one] it was 11%; in that of `CC1(F)CN(C(=O)Cn2ccc3scc(-c4cnc(Cl)nc4)c3c2=O)C1` [Example 140, 3-(2-chloropyrimidin-5-yl)-5-(2-(3-fluoro-3-methylazetidin-1-yl)-2-oxoethyl)thieno[3,2-c]pyridin-4(5H)-one], 3.1%; in that of `CCC1(F)CN(C(=O)Cn2ccc3scc(-c4cnc(Cl)nc4)c3c2=O)C1` [Example 141, 3-(2-chloropyrimidin-5-yl)-5-(2-(3-ethyl-3-fluoroazetidin-1-yl)-2-oxoethyl)thieno[3,2-c]pyridin-4(5H)-one], −4.1%.

As to `O=C(Cn1ccc2scc(-c3cnc(Cl)nc3)c2c1=O)N1CC(F)(CF)C1` [Example 142, 3-(2-chloropyrimidin-5-yl)-5-(2-(3-fluoro-3-(fluoromethyl)azetidin-1-yl)-2-oxoethyl)thieno[3,2-c]pyridin-4(5H)-one], the “Response Recovered (%)” value was −4.2%. The result for `CCC1(F)CN(C(=O)Cn2ccc3scc(-c4cnc(F)c(F)c4)c3c2=O)C1` [Example 143, 3-(5,6-difluoropyridin-3-yl)-5-(2-(3-ethyl-3-fluoroazetidin-1-yl)-2-oxoethyl)thieno[3,2-c]pyridin-4(5H)-one] reads 15%; that for `O=C(Cn1ccc2scc(-c3cnc(F)c(F)c3)c2c1=O)N1CC(F)(CF)C1` [Example 144, 3-(5,6-difluoropyridin-3-yl)-5-(2-(3-fluoro-3-(fluoromethyl)azetidin-1-yl)-2-oxoethyl)thieno[3,2-c]pyridin-4(5H)-one], 9.8%; that for `CC1(F)CN(C(=O)Cn2ccc3scc(-c4cncc(Cl)n4)c3c2=O)C1` [Example 145, 3-(6-chloropyrazin-2-yl)-5-(2-(3-fluoro-3-methylazetidin-1-yl)-2-oxoethyl)thieno[3,2-c]pyridin-4(5H)-one], 3%.

Turning to `O=C(Cn1ccc2scc(-c3cncc(Cl)n3)c2c1=O)N1CC(F)(CF)C1` [Example 146, 3-(6-chloropyrazin-2-yl)-5-(2-(3-fluoro-3-(fluoromethyl)azetidin-1-yl)-2-oxoethyl)thieno[3,2-c]pyridin-4(5H)-one], the “Response Recovered (%)” value was −3.8%. The result for `CCC1(F)CN(C(=O)Cn2ccc3scc(-c4cncc(Cl)n4)c3c2=O)C1` [Example 147, 3-(6-chloropyrazin-2-yl)-5-(2-(3-ethyl-3-fluoroazetidin-1-yl)-2-oxoethyl)thieno[3,2-c]pyridin-4(5H)-one] reads −0.39%; that for `O=C(Cn1cnc2[nH]cc(-c3ccc(Cl)c(C(F)(F)F)c3)c2c1=O)N1CCCC1` [Example 148, 5-(4-chloro-3-(trifluoromethyl)phenyl)-3-(2-oxo-2-(pyrrolidin-1-yl)ethyl)-3H-pyrrolo[2,3-d]pyrimidin-4(7H)-one], 66%. In the case of `O=C(Cn1cnc2c(c(-c3ccc(Cl)c(C(F)(F)F)c3)cn2CCF)c1=O)N1CCCC1` [Example 149, 5-(4-chloro-3-(trifluoromethyl)phenyl)-7-(2-fluoroethyl)-3-(2-oxo-2-(pyrrolidin-1-yl)ethyl)-3H-pyrrolo[2,3-d]pyrimidin-4(7H)-one] it was 64%. As to `O=C(Cn1cnc2[nH]cc(-c3ccc(Cl)cc3)c2c1=O)N1CCCC1` [Example 150, 5-(4-chlorophenyl)-3-(2-oxo-2-(pyrrolidin-1-yl)ethyl)-3H-pyrrolo[2,3-d]pyrimidin-4(7H)-one], the “Response Recovered (%)” value came out at 31%.

Take `Cn1cc(-c2ccc(Cl)cc2)c2c(=O)n(CC(=O)N3CCCC3)cnc21` [Example 151, 5-(4-chlorophenyl)-7-methyl-3-(2-oxo-2-(pyrrolidin-1-yl)ethyl)-3H-pyrrolo[2,3-d]pyrimidin-4(7H)-one]: the “Response Recovered (%)” value worked out at 17%. In the case of `O=C(Cn1cnc2[nH]cc(-c3ccc(Cl)cc3)c2c1=O)N1CCCC1C(F)(F)F` (stereo not drawn) [Example 152, 5-(4-chlorophenyl)-3-(2-oxo-2-(2-(trifluoromethyl)pyrrolidin-1-yl)ethyl)-3H-pyrrolo[2,3-d]pyrimidin-4(7H)-one] it was 10%. In the case of `Cn1cc(-c2ccc(Cl)cc2)c2c(=O)n(CC(=O)N3CCCC3C(F)(F)F)cnc21` (stereo not drawn) [Example 153, 5-(4-chlorophenyl)-7-methyl-3-(2-oxo-2-(2-(trifluoromethyl)pyrrolidin-1-yl)ethyl)-3H-pyrrolo[2,3-d]pyrimidin-4(7H)-one] it was 35%.

For the origin of these results see patent US12162890B2 (Novartis AG, priority 2015, dated 2024).
